Converted amounts (≈) assume the structure as drawn.

One data set has as its system E. coli D-1. Put plainly: Antibacterial activity (minimum effective inhibitory concentration). The class given is cell-based. The following applies: Escherichia coli, D1. An excerpt:
(§1) Antibacterial activities (minimum effective inhibitory concentrations) of compounds of formula I (taken from the following Examples) are shown in the following Table.

Another data set deals with K. pneumoniae ATCC 10031. Described as above. The class given is cell-based. The following applies: Klebsiella pneumoniae, ATCC10031.
Excerpt: as §1

The next data set relates to P. aeruginosa NCTC 10490. Described as above. The following applies: Pseudomonas aeruginosa, NCTC10490. It counts as cell-based.
Excerpt: as §1

Another data set concerns S. aureus FDA 209P JC-1. The description is as above. Particulars: Staphylococcus aureus, FDA209P. It counts as cell-based.
Excerpt: as §1

The next data set deals with S. epidermidis IID 866. Described as above. Particulars: Staphylococcus epidermidis, IID866. It counts as cell-based.
Excerpt: as §1

Data set [1] in a line: Acute toxicity, intravenous injection into mice. It counts as in vivo. The procedure: Some of the compounds of this invention have low toxicity (acute toxicity).
The compound of Example 4 has, in particular, low toxicity.
200 mg of /the compound of Example 4 was dissolved in 2 ml of distilled water and after adjusting the pH of the solution to about 7 by addition of sodium hydrogen carbonate to form an injection solution, the solution was intravenously injected into mice (body weights: 26-28 g; ICR ? 5W) over a period of 4 minutes at a rate of 1 ml/kg. There were no lethal cases for administration doses below 4.0 g/kg.

For `CCCC(=O)C[n+]1ccc(SCC2=C(C(=O)[O-])N3C(=O)C(NC(=O)C(=NOC)c4csc(N)n4)C3SC2)cc1` (stereo not drawn) [Example 20, (Z)-7-[α-(2-Amino-4-thiazolyl)-α-(methoxyimino)acetamido]-3-[(1-(2-oxopentyl)-4-pyridinio]thiomethyl-Δ^3-cephem-4-carboxylate], the minimum inhibitory concentration (MIC) in the data set on E. coli D-1 was no more than 0.006 µg/mL; against K. pneumoniae ATCC 10031, no more than 0.006 µg/mL; against P. aeruginosa NCTC 10490, 0.39 µg/mL (≈ 0.66 µM); in the data set on S. aureus FDA 209P JC-1, 0.2 µg/mL (≈ 0.339 µM); in the data set on S. epidermidis IID 866, 0.1 µg/mL (≈ 0.169 µM).
For `CO/N=C(\C(=O)N[C@@H]1C(=O)N2C(C(=O)[O-])=C(CSc3cc[n+](CC(C)=O)cc3)CS[C@H]12)c1csc(N)n1` [Example 4, (Z)-7-[α-(2-amino-4-thiazolyl)-α-(methoxyimino)acetamido]-3-[1-acetonyl-4-pyridinio)thiomethyl-Δ^3-cephem-4-carboxylate], the minimum inhibitory concentration (MIC) is no more than 0.006 µg/mL in the data set on E. coli D-1; no more than 0.006 µg/mL against K. pneumoniae ATCC 10031; 0.2 µg/mL (≈ 0.355 µM) against P. aeruginosa NCTC 10490; 0.2 µg/mL (≈ 0.355 µM) in the data set with S. aureus FDA 209P JC-1; 0.1 µg/mL (≈ 0.178 µM) with S. epidermidis IID 866. For the same molecule, the “administration doses with no lethal cases” value in data set [1] (ICR mice (26-28 g), intravenous injection over 4 minutes, aqueous solution at about pH 7) is on record as “below 4.0 g/kg”. Moreover, in data set [1] (statement in words), the “toxicity (acute toxicity)” value was “low toxicity”.
Turning to `CON=C(C)C[n+]1ccc(SCC2=C(C(=O)[O-])N3C(=O)C(NC(=O)C(=NOC)c4csc(N)n4)C3SC2)cc1` (stereo not drawn) [Example 17, (Z)-7-[α-(2-amino-4-thiazolyl)-α-(methoxyimino)acetamido]-3-(1-(2-methoxyimino-propyl)-4-pyridinio)thiomethyl-Δ^3-cephem-4-carboxylate], the MIC in the data set on E. coli D-1 was 0.013 µg/mL (≈ 0.022 µM); with K. pneumoniae ATCC 10031, 0.013 µg/mL (≈ 0.022 µM); in the data set on P. aeruginosa NCTC 10490, 0.78 µg/mL (≈ 1.32 µM); in the data set with S. aureus FDA 209P JC-1, 0.2 µg/mL (≈ 0.338 µM); with S. epidermidis IID 866, 0.2 µg/mL (≈ 0.338 µM).
Turning to `CO/N=C(\C(=O)N[C@@H]1C(=O)N2C(C(=O)[O-])=C(CSc3cc[n+](CC#N)cc3)CS[C@H]12)c1csc(N)n1` [Example 1, (Z)-7-[α-(2-amino-4-thiazolyl)-α-(methoxyimino)acetamido]-3-(1-cyanomethyl-4-pyridinio)thiomethyl-Δ^3-cephem-4-carboxylate], the minimal inhibitory concentration (MIC) with E. coli D-1 was determined as 0.013 µg/mL (≈ 0.0238 µM); with K. pneumoniae ATCC 10031 it was 0.013 µg/mL (≈ 0.0238 µM); with P. aeruginosa NCTC 10490 it was 0.39 µg/mL (≈ 0.715 µM); against S. aureus FDA 209P JC-1, 0.2 µg/mL (≈ 0.367 µM); against S. epidermidis IID 866, 0.1 µg/mL (≈ 0.183 µM).
With `CO/N=C(\C(=O)N[C@@H]1C(=O)N2C(C(=O)[O-])=C(CSc3cc[n+](Cc4c[nH]cn4)cc3)CS[C@H]12)c1csc(N)n1` [Example 15, (Z)-7-[α-(2-amino-4-thiazolyl)-α-(methoxyimino)acetamido]-3-(1-(4-imidazolyl)methyl-4-pyridinio)thiomethyl-Δ^3-cephem-4-carboxylate], the minimum inhibitory concentration (MIC) was determined as 0.013 µg/mL (≈ 0.0222 µM) against E. coli D-1; 0.013 µg/mL (≈ 0.0222 µM) against K. pneumoniae ATCC 10031; 0.39 µg/mL (≈ 0.665 µM) against P. aeruginosa NCTC 10490; 0.2 µg/mL (≈ 0.341 µM) in the data set on S. aureus FDA 209P JC-1; 0.1 µg/mL (≈ 0.17 µM) in the data set on S. epidermidis IID 866.
Take `C#CC[n+]1ccc(SCC2=C(C(=O)[O-])N3C(=O)[C@@H](NC(=O)/C(=N\OC)c4csc(N)n4)[C@H]3SC2)cc1` [Example 9, (Z)-7-[a-(2-amino-4-thiazolyl)-a-(methoxyimino)acetamido]-3-[1-propargyl-4-pyridinio]thiomethyl-Δ^3-cephem-4-carboxylate]: the MIC was no more than 0.006 µg/mL in the data set with E. coli D-1; no more than 0.006 µg/mL against K. pneumoniae ATCC 10031; 0.39 µg/mL (≈ 0.716 µM) in the data set on P. aeruginosa NCTC 10490; 0.1 µg/mL (≈ 0.184 µM) against S. aureus FDA 209P JC-1; 0.1 µg/mL (≈ 0.184 µM) with S. epidermidis IID 866.
As to `CC(=O)C[n+]1ccc(SCC2=C(C(=O)[O-])N3C(=O)C(NC(=O)C(=NOCCF)c4csc(N)n4)C3SC2)cc1` (stereo not drawn) [Example 12, (Z)-7-[α-(2-amino-4-thiazolyl)-α-(2-fluoroethoxyimino)acetamidoa-3-[1-acetonyl-4-pyridinio]thiomethyl-Δ^3-cephem-4-carboxylate], the MIC in the data set on E. coli D-1 turned out to be 0.025 µg/mL (≈ 0.042 µM); with K. pneumoniae ATCC 10031, 0.013 µg/mL (≈ 0.0219 µM); against P. aeruginosa NCTC 10490, 0.39 µg/mL (≈ 0.656 µM); in the data set with S. aureus FDA 209P JC-1, 0.2 µg/mL (≈ 0.336 µM); in the data set with S. epidermidis IID 866 it was 0.1 µg/mL (≈ 0.168 µM).
For `CO/N=C(\C(=O)N[C@@H]1C(=O)N2C(C(=O)O)=C(CSc3nnnn3C)CS[C@H]12)c1csc(N)n1` [Cefmeno-xime] the same measures were 0.025 µg/mL (≈ 0.0489 µM), no more than 0.006 µg/mL, 0.2 µg/mL (≈ 0.391 µM), 1.56 µg/mL (≈ 3.05 µM) and 0.39 µg/mL (≈ 0.762 µM).

For orientation: MIC means the smallest concentration in the dilution series that meets the test's criterion for growth inhibition.

The values above are taken from patent EP0190900A2, “Cephalosporin compounds, their production, and pharmaceutical compositions containing them” (YAMANOUCHI PHARMACEUTICAL CO. LTD., priority 1985, dated 1986).
